Data from patent US6284918A, “Selective inhibitors of prostaglandin endoperoxide synthase-2” (priority 1999, dated 2001).
Where two headings read alike, the source gives them in different places.

Key:
[1] = molecular target: T1, human PGHS-2 (Homo sapiens, UniProt P35354); assay: Time- and concentration-dependent inhibition of human PGHS-2, TLC assay (3 h preincubation); format: biochemical; details: for IC50: PGHS-2 88 nM; for inhibition of PGHS-2 (in words): table footnotes; for IC50 (PGHS-1)/IC50 (PGHS-2): selectivity ratio, 180 min
T1 construct: made in house; host or cells: insect cells (baculovirus vectors)
T1 sequence (P35354 18-604): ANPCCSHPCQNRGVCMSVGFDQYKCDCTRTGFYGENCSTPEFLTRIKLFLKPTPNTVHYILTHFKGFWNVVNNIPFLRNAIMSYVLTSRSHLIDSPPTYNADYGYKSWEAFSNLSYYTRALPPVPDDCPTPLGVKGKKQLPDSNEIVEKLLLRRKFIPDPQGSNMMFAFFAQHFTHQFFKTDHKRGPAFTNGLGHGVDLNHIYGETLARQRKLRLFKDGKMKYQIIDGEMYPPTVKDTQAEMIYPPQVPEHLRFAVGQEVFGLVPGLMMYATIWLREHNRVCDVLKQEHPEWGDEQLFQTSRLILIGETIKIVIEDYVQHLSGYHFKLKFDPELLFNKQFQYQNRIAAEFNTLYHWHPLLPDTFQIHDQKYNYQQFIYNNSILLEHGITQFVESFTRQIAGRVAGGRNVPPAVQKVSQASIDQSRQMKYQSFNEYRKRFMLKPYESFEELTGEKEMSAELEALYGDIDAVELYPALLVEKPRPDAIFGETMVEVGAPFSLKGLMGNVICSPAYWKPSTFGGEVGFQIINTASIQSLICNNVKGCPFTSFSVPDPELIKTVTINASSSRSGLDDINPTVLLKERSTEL
Method: (§1) Cyclooxygenase activity of ovine PGHS-1 (22 nM) or human PGHS-2 (88 nM) was assayed by TLC. Reaction mixtures of 200 μL consisted of hematin-reconstituted protein in 100 mM Tris-HCl, pH 8.0, 500 μM phenol, and [1-^14 C]arachidonic acid (50 μM, 57 mCi/mmol). For the time-dependent inhibition assay, hematin-reconstituted PGHS-1 (22 nM) or PGHS-2 (88 nM) was preincubated at room temperature for 2 hours and then at 0° C. for 1 hour with varying concentrations of inhibitor in DMSO followed by the addition of [1-^14 C]arachidonic acid (50 μM) for 30 seconds at 37° C. Reactions were terminated by solvent extraction in diethyl ether/methanol/1 M citrate, pH 4.0 (30:4:1). The organic phase was spotted on a TLC plate (Amersham Corp.). The plate was developed with ethyl acetate/methylene chloride/glacial acetic acid (75:25:1) at 4° C. Radiolabeled products were quantitated with a radioactivity scanner (Bioscan, Inc., Washington, D.C.).
(§2) conducted at room temperature for 3 hours. The cyclooxygenase reaction was
(§3) initiated by the addition of 14C-arachidonic acid (50 μM) to the
(§4) incubation mixtures at 37 C for 30 seconds.
(§5) conducted at room temperature for 3 hours. The cyclooygenase reaction was
(§6) initiated by the addition of ^14 C-arachidonic acid ([…]) to the
(§7) incubation mixtures at 37° C. for 30 sec.

[2] = molecular target: T2, ovine PGHS-1 (Ovis aries, UniProt P05979); assay: Time- and concentration-dependent inhibition of ovine PGHS-1, TLC assay (3 h preincubation); format: biochemical; details: for inhibition of PGHS-1 (in words): table footnotes
T2 construct: PGHS-1 was purified from sheep seminal vesicles as described earlier; tissue Oxford Biomedical Research, Inc. (supplier of the sheep seminal vesicles); host or cells: sheep seminal vesicles
T2 sequence (P05979 25-600): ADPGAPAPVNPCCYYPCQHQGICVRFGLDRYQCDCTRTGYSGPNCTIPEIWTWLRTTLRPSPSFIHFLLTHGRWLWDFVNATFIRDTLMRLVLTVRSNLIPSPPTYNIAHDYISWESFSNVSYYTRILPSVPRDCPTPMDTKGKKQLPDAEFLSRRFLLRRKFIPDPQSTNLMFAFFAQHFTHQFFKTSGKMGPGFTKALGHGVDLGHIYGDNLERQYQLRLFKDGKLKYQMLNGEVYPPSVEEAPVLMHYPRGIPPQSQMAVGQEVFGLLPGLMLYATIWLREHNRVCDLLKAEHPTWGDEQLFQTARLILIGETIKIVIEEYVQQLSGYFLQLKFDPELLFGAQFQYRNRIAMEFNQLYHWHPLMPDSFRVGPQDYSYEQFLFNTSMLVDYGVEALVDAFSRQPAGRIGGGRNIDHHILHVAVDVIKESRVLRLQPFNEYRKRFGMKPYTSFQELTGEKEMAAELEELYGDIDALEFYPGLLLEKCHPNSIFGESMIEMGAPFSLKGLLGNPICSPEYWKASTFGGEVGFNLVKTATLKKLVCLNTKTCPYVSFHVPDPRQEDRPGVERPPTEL
Method: as §1, §2, §3, §4, §5, §6, §7

[3] = molecular target: T3, hCOX-2 (Homo sapiens, UniProt P35354); assay: Time- and concentration-dependent inhibition of hCOX-2 (1 h incubation); format: biochemical
T3 construct: made in house; host or cells: insect cells (baculovirus vectors)
T3 sequence (P35354 18-604): T1 sequence (P35354 18-604)
Method: (§8) ^a IC50 values were determined by incubating several inhibitor
(§9) concentrations in DMSO with purified hCOX-2 or oCOX-1 for 1 h at rt;
(§10) assays were run in duplicate. IC50 values are average of duplicate
(§11) determinations for each test compounds.

[4] = molecular target: T4, oCOX-1 (Ovis aries, UniProt P05979); assay: Time- and concentration-dependent inhibition of oCOX-1 (1 h incubation); format: biochemical, ovine
T4 construct: PGHS-1 was purified from sheep seminal vesicles as described earlier; tissue Oxford Biomedical Research, Inc. (supplier of the sheep seminal vesicles); host or cells: sheep seminal vesicles
T4 sequence (P05979 25-600): T2 sequence (P05979 25-600)
Method: as §8, §9, §10, §11

[5] = Table 1, 3 h at room temperature, 50 μM 14C-arachidonic acid
[6] = Table 1, 22 nM enzyme, 3 h at room temperature, 50 μM 14C-arachidonic acid
[7] = Table 2, 3 h at room temperature
[8] = Table 2, PGHS-1 22 nM, 3 h at room temperature
[9] = Table 3, 1 h at rt, average of duplicates, read-out: IC50 hCOX-2
[10] = Table 3, 1 h at rt, average of duplicates, read-out: IC50 oCOX-1

In the case of `CSc1ccccc1OC(=O)C(F)(F)F` [Compound 6], the inhibition at 100 µM ([1]; FIG. 8, 0.1 mM) is reported as about 35%.

`CSc1ccccc1OC(=O)CCl` [Compound 7, 2-(α-chloroacetoxy)thioanisole] was tested, and the IC50 [1, 5] was 360 µM and the IC50 [2, 6] was 0.39 mM.

With `CSc1ccccc1OC(=O)CBr` [Compound 8, 2-(α-bromoacetoxy)thioanisole] the IC50 [1, 5] was 510 µM and the IC50 [2, 6] was 0.32 mM.

In the case of `CCCCCCCSc1ccccc1O` [Compound 38, 2-Hydroxyphenylheptyl sulfide], the “inhibition of cyclooxygenase activity of human holoPGHS-2 (in words)” value (shortened to “inhibition … of human holoPGHS-2 (in words)”) ([1]; FIG. 9, 3 h at room temperature) is reported as “very little effect”, the “inhibition of PGHS-2 (in words)” value [1] is reported as “did not inhibit” and the “inhibition of PGHS-1 (in words)” value [2] is reported as “did not inhibit”.

With `CCSc1ccccc1OC(C)=O` [Compound 49, 2-Acetoxyphenylethyl sulfide] the IC50 [1, 7] was 200 µM, the “IC50 (PGHS-1)/IC50 (PGHS-2)” value ([1]; Table 2) was 1.8 and the IC50 [2, 8] was 0.375 mM.

With `CCCSc1ccccc1OC(C)=O` [Compound 50, 2-Acetoxyphenylpropyl sulfide] the IC50 [1, 7] was 66 µM, the “IC50 (PGHS-1)/IC50 (PGHS-2)” value ([1]; Table 2) was 1.0 and the IC50 [2, 8] was 0.066 mM.

`CC(=O)Oc1ccccc1SCC(C)C` [Compound 51, 2-Acetoxyphenyl-2-methylpropyl sulfide] was tested, and the IC50 [1, 7] was 40 µM, the “IC50 (PGHS-1)/IC50 (PGHS-2)” value ([1]; Table 2) was 1.2 and the IC50 [2, 8] was 0.034 mM.

With `CCCCCCSc1ccccc1OC(C)=O` [Compound 53, 2-Acetoxyphenylhexyl sulfide] the IC50 [1, 7] was 3.5 µM, the “IC50 (PGHS-1)/IC50 (PGHS-2)” value ([1]; Table 2) was 2.3 and the IC50 [2, 8] was 0.008 mM.

For `CCCCCCCCSc1ccccc1OC(C)=O` [Compound 55, 2-Acetoxyphenyloctyl sulfide], the IC50 [1, 7] was over 33 µM and the IC50 [2, 8] was over 0.033 mM.

With `CCCCCCCCCSc1ccccc1OC(C)=O` [Compound 56, 2-Acetoxyphenylnonyl sulfide] the IC50 [1, 7] was over 33 µM and the IC50 [2, 8] was over 0.033 mM.

`CC(=O)Oc1ccccc1SC1CCCCC1` [Compound 57, 2-Acetoxyphenylcyclohexyl sulfide] gave an IC50 [1, 7] of over 33 µM and an IC50 [2, 8] of over 0.033 mM.

`CC(=O)Oc1ccccc1SC1CCCCCC1` [Compound 58, 2-Acetoxyphenylcycloheptyl sulfide] gave an IC50 [1, 7] of over 33 µM and an IC50 [2, 8] of over 0.033 mM.

`CC(=O)Oc1ccccc1SCCc1ccccc1` [Compound 60, 2-Acetoxyphenyl-2-phenylethyl sulfide] showed an IC50 [1, 5] of 100 µM.

`CC(=O)Oc1ccccc1SCCCCCCCC(=O)O` [Compound 63, 2-Acetoxyphenyl-8-carboxyheptyl sulfide] was tested, and the IC50 ([2]; Table 1, cell printed in mM) was over 1 mM.

With `CCCCOCCSc1ccccc1OC(C)=O` [Compound 67, 2-Acetoxyphenyl-2-butoxyethyl sulfide] the “inhibition … of human holoPGHS-2 (in words)” value ([1]; FIG. 11, 8 μM (compound 67)) was “greatly inhibited”, the IC50 [1, 7] was 7 µM and the “IC50 (PGHS-1)/IC50 (PGHS-2)” value ([1]; Table 2) was 3. For the same molecule, the IC50 [2, 8] was 0.022 mM.

`CCOCCCSc1ccccc1OC(C)=O` [Compound 71, 2-Acetoxyphenyl-3-ethoxypropyl sulfide] was tested, and the “inhibition … of human holoPGHS-2 (in words)” value ([1]; FIG. 11, 8 μM (compound 67)) was “very little effect”, the IC50 [1, 7] was over 33 µM and the IC50 [2, 8] was over 0.033 mM.

Molecule `CCCC/C=C/CSc1ccccc1OC(C)=O` [Compound 75, 2-Acetoxyphenyl-trans-hept-2-enyl sulfide] has an IC50 [2, 8] of over 0.0165 mM and an inhibition at 16.5 µM ([2]; at 16.5 μM) of about 25%.

With `CCCCC#CCSc1ccccc1O` [Compound 82, 2-Hydroxyphenyl-hept-2-ynyl sulfide] the “inhibition … of human holoPGHS-2 (in words)” value ([1]; FIGS. 12 and 13, 1-16 μM) was “very little effect”, the “inhibition of PGHS-2 (in words)” value [1] was “did not inhibit” and the “inhibition of PGHS-1 (in words)” value [2] was “did not inhibit”.

`CCCC#CCSc1ccccc1OC(C)=O` [Compound 88, 2-Acetoxyphenylhex-2-ynyl sulfide] was tested, and the “inhibition … of human holoPGHS-2 (in words)” value ([1]; FIGS. 12 and 13, 1-16 μM) was “greatly inhibited”, the IC50 [1, 7] was 3 µM and the “IC50 (PGHS-1)/IC50 (PGHS-2)” value ([1]; Table 2) was 4.6. It also gave an IC50 [2, 8] of 0.014 mM.

With `CCC#CCSc1ccccc1OC(C)=O` [Compound 89, 2-Acetoxyphenylpent-2-ynyl sulfide] the IC50 [1, 7] was 5 µM, the “IC50 (PGHS-1)/IC50 (PGHS-2)” value ([1]; Table 2) was 4 and the IC50 [2, 8] was 0.02 mM.

With `CC#CCSc1ccccc1OC(C)=O` [Compound 90, 2-Acetoxyphenyl-but-2-ynyl sulfide] the “IC50 (PGHS-1)/IC50 (PGHS-2)” value ([1]; Table 2) was over 2 and the IC50 [2, 8] was over 0.035 mM.

In the case of `C#CCSc1ccccc1OC(C)=O` [Compound 91, 2-Acetoxyphenyl-prop-2-ynyl sulfide], the IC50 [1, 7] is reported as 25 µM, the “IC50 (PGHS-1)/IC50 (PGHS-2)” value ([1]; Table 2) is reported as 1.6 and the IC50 [2, 8] is reported as 0.04 mM.

For `CCCCCCCS(=O)(=O)c1ccccc1OC(C)=O` [Compound 93, 2-Acetoxyphenylheptyl sulfone], the “inhibition of PGHS-2 (in words)” value [1] was “very poor inhibitor” and the “inhibition of PGHS-1 (in words)” value [2] was “very poor inhibitor”.

`CCCCCC#CCSc1ccccc1OC(C)=O` [Compound 109, 2-Acetoxyphenyloct-2-ynyl sulfide] showed an IC50 [3, 9] of 7 µM and an IC50 [4, 10] of 33 µM.

For `CCCCCCC#CCSc1ccccc1OC(C)=O` [Compound 110, 2-Acetoxyphenylnon-2-ynyl sulfide], the IC50 [3, 9] was 12.5 µM and the IC50 [4, 10] was 50 µM.

With `CCCCCCCC#CCSc1ccccc1OC(C)=O` [Compound 111, 2-Acetoxyphenyldec-2-ynyl sulfide] the IC50 [3, 9] was 16 µM and the IC50 [4, 10] was over 50 µM.

For `CCCC#CCCSc1ccccc1OC(C)=O` [Compound 115, 2-Acetoxyephenylhept-3-ynyl sulfide], the IC50 [3, 9] was 6.5 µM and the IC50 [4, 10] was 18 µM.

With `CCCCC#CCSc1ccccc1OC(N)=O` [Compound 122, 2-Carbamoyloxyphenylhept-2-ynyl sulfide] the IC50 [3] was over 40 µM and the IC50 [4] was over 40 µM.

For `CCCCC#CCSc1ccccc1OC(=O)CBr` [Compound 123, 2-(α-bromoacetoxy)phenylhept-2-ynyl sulfide], the IC50 [3, 9] was 26 µM and the IC50 [4, 10] was 20 µM.

`CCCCC#CCSc1ccccc1OS(C)(=O)=O` [Compound 124, 2-Methylsulfonyloxyphenylhept-2-ynyl sulfide] was tested, and the IC50 [3, 9] was over 40 µM and the IC50 [4, 10] was over 40 µM.
